Test results: ChEMBL document CHEMBL3507680, “University of Dundee, Gates Library screen for HepG2 cell viability”

Assay: Human HepG2 cell viability assay in 384 well format
Assay type: toxicity, cell-based
Set-up: dose 125 nL, time 70.5 hour; cytotoxicity at 70.5 h: concentration not given beside the values
Settings: HepG2 cells, read-out: Inhibition

Compound	cytotoxicity at 70.5 h [%]
CN1CCCC(c2cccc(-c3ccccc3F)n2)C1 (stereo not drawn)	-2.39
CN(C)c1ccc(C(=O)N2CCC(c3cc4cnccc4[nH]3)CC2)cc1	-0.667
CC(=O)N1CCC1c1nc(-c2ccc(C)s2)no1 (stereo not drawn)	23.5
Cn1ccc(C(=O)N2CCCC2c2cc(CO)[nH]n2)n1 (stereo not drawn)	-2.72
Cc1cc(NC(=O)CN2CCN(C3CCCC3)C(=O)C2)nn1C	-4.01
Cc1noc(C)c1C(=O)N[C@@H]1CC[C@@H](Oc2ccccc2)[C@@H]1O	-2.95
OCc1cc(C2CCCN2c2ncccn2)n[nH]1 (stereo not drawn)	0.468
Fc1ccccc1-c1cccc(C2CCCN(C3CCOCC3)C2)n1 (stereo not drawn)	-7.34
COc1ccc(C2CN(c3nc(C)cc(C)n3)CCN2C(C)=O)cc1 (stereo not drawn)	-4.4
CCc1c(C)nn2c(O)cc(C3CCN(C(=O)C4CC4)C3)nc12 (stereo not drawn)	-6
CCNC(=O)[C@H]1CN(Cc2ccccc2)C[C@@H]1C(=O)c1ccccc1	-12.3
O=C(c1cc(C2CC2)on1)N1C[C@H]2CC[C@](O)(c3ccccc3F)[C@H]2C1	-0.256
CN(C)Cc1cccc(-c2cccnc2C(=O)NCc2ccccn2)c1	-3.29
CN([C@@H]1CC[C@@H](N2CCOCC2)[C@@H]1O)S(=O)(=O)c1ccccc1	-10.3
CC1(c2nccs2)CCN(C(=O)CC2CCOCC2)CC1	-9.57
Nc1cc(-c2c[nH]nc2C2CCN(C(=O)C3CCCC3)C2)ccn1 (stereo not drawn)	5.65
c1cnc(N2CCCC(Cc3nccs3)C2)nc1 (stereo not drawn)	-3.8
CS(=O)(=O)N1CCCCC1c1ccc(Nc2cnccn2)nc1 (stereo not drawn)	-7.53
Cc1cc(C(F)F)nn1CC(=O)NCc1nccn1C	-3.8
CNC(=O)C1CN(C(=O)Cc2ccc(OC)cc2)Cc2cn(C)nc21 (stereo not drawn)	-7.07

Compound	cytotoxicity at 70.5 h [%]
CCCC(=O)NCCc1cc(NC)nc(-c2ccccn2)n1	20.8
CNC(=O)C1CCCN(C(=O)c2cncs2)C1 (stereo not drawn)	-9.62
CN1CCN(C(=O)CCn2ncc3ccccc32)CC(C(N)=O)C1 (stereo not drawn)	-6.19
CN(C)c1nccnc1C1CCN(C(=O)C2(C)CCCCN2C)CC1 (stereo not drawn)	-5.33
Cc1cncc(C2CCN(Cc3ccc(S(C)(=O)=O)cc3)CC2)n1	-9.92
O=C(CC1CC1)N1C[C@@H](O)[C@H](N2CCN(c3ccccc3)CC2)C1	22.4
CC(C)N1CC(c2ccnc(Nc3nccs3)n2)C1	-10.4
Cc1cncc(C2CCN(Cc3cnc(C)nc3)CC2)n1	-7.22
CC(C)Cn1nc(-c2ccc(C(=O)O)cc2)cc1-c1ccc(F)cc1	-5.39
CC1(C)O[C@@](C)([C@H]2CC3(CCN(c4ncccn4)CC3)CO2)CC[C@@H]1O	-4.22
NC(=O)CN1C[C@@H](c2ccccc2F)[C@@]2(CCCCC(=O)N2)C1	-7.09
Cc1nn(C)cc1C(=O)N1CCC(C(=O)c2nc3ccccc3s2)CC1	-4.17
CN(C(=O)c1ccncc1)c1nnc(C2CCOC2)s1 (stereo not drawn)	-5.28
Cc1nn(C)c(C)c1-c1ccc(=O)n(C(C)C(=O)NCc2ccco2)n1 (stereo not drawn)	-7.42
CCc1c(C)nc2cc(-c3nccn3C)nn2c1N1CCCC(CO)C1 (stereo not drawn)	27.9
Cn1ccnc1C(O)c1ccccc1N1CCN(CC2CCCC2)CC1 (stereo not drawn)	-3.89
Cc1cc(-c2cnc(N3CCCC(C)C3)nc2C(C)C)on1 (stereo not drawn)	18.8
CCC(=O)NCCc1cc2nc(-c3ccncc3)ccn2n1	-5.77
Cc1nc2cc(C3CCN(C(=O)c4ccccn4)CC3)nn2c(O)c1C	44.6
Cc1ncc(C(=O)N2CC(C(=O)N3CCOCC3)C2)c(C)n1	-12.5

Compound	cytotoxicity at 70.5 h [%]
O=C(Cn1c(=O)n(Cc2ccco2)c2ncccc21)NC1CCCC1	-7.12
Cc1cc(-c2cnc(N3CCOCC3)nc2-c2ccc(C)s2)on1	-3.57
Cc1cc(-c2cnc(N3CCSCC3)nc2-c2ccc(C)s2)on1	-7.01
O=C(CCN1CCCCC1)Nc1c2c(cc3c1CCC3)CCC2	-1.77
CCN(CC)CCn1c(=O)oc2ccccc21	-3.03
CCC(CO)NCc1ccc(-c2ccc(F)cc2)o1 (stereo not drawn)	-2.16
CCC(CO)NCc1ccc(-c2ccccc2)o1 (stereo not drawn)	29.3
c1nn(C2CCCCC2)cc1-c1cncn1CCCN1CCCCC1	-0.625
Cc1nc2cc(-c3nccn3C)nn2c(N2CCC(O)CC2)c1C	-3.32
Cc1nc(NCc2ccc(F)cc2)cc(C2CCCN2)n1 (stereo not drawn)	-2.67
Cn1ccnc1CNC(=O)c1ccnc(C2CCNCC2)c1	-6.57
O=C(NCC(F)F)c1cnc(C2CCCN2)cn1 (stereo not drawn)	-3.12
CNc1cc(C2CCCNC2)nc(C)n1 (stereo not drawn)	16.2
NCCc1c(-c2ccccc2)[nH][nH]c1=O	-7.56
CN(C)CCOCc1ncn2c1CN(c1ncc(F)cn1)CCC2	-3.65
COc1cc(CN(C)[C@@H]2COC[C@H]2c2ccc(F)cc2)cc(OC)c1	0.803
Cc1nc2sccn2c1CN(CCCN(C)C)Cc1ccco1	-21.2
CC(N)Cc1ccccc1Sc1ccccc1 (stereo not drawn)	-1.45
